This note sets out measurements from PubChem BioAssay AID1963957 (Xavier Lab, Infectious Disease and Microbiome Program, …, 2024).

In general, EC50 refers to the concentration giving half of the maximal effect.

Activity calls are given as the source filed them.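 Rule for the calls: active = significant rise in GFP-LC3 puncta area per cell versus the same autophagy-inducer co-treatment given without compound; inactive = the rest.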

In the test the test system is HeLa GFP-LC3 puncta imaging, 4 h. Put plainly: autophagy induction assessed by green fluorescent protein-tagged microtubule-associated protein 1 light chain 3 foci, microscopy imaging, HeLa reporter line expressing fluorescent MAP1 light chain 3, co-treatment with rapamycin or Torin1 (AID 1963957). Conditions: for puncta normalized to Torin1: at 20 µM, hits give high values.

For the compound `CCC(C)(C)C(=O)C(=O)N1CCCC[C@H]1C(=O)N[C@H](CCc1ccc(OC)cc1)C(=O)N1[C@@H]2CC[C@H]1CC(Nc1nc(NCCc3sc(N)nc3C)nc(N(C)Cc3nnc4n3CCC4)n1)C2` (stereo partly specified), the puncta normalized to Torin1 is, setting by setting: (no co-treatment) 0.13 (inactive); (with Rapamycin) 0.68 (inactive); (with Torin1) 0.98 (inactive).

For `CCC(=O)N1CCN(c2ccc(-n3c(=O)ccc4cnc5ccc(-c6cnc7ccccc7c6)cc5c43)cc2C(F)(F)F)CC1`, for the setting “with Torin1”, the puncta normalized to Torin1 is 1.

As for `CO[C@H]1C[C@@H]2CC[C@@H](C)[C@@](O)(O2)C(=O)C(=O)N2CCCC[C@H]2C(=O)O[C@H]([C@H](C)C[C@@H]2CC[C@@H](O)[C@H](OC)C2)CC(=O)[C@H](C)/C=C(\C)[C@@H](O)[C@@H](OC)C(=O)[C@H](C)C[C@H](C)\C=C/C=C/C=C/1C`, the puncta normalized to Torin1 (with Rapamycin) is 0.39.

Take `CCC(C)(C)C(=O)C(=O)N1CCCC[C@H]1C(=O)N[C@H](CCc1ccc(OC)cc1)C(=O)N1CC[C@H](Nc2nc(NCCc3sc(N)nc3C)nc(N(C)Cc3nnc4n3CCC4)n2)C1`: the puncta normalized to Torin1 (no co-treatment) is -0.05 (inactive), the puncta normalized to Torin1 (with Rapamycin) is 0.32 (inactive) and the puncta normalized to Torin1 (with Torin1) was 0.72 (inactive).

Consider `CCC(C)(C)C(=O)C(=O)N1CCCC[C@H]1C(=O)N[C@H](CCc1ccc(OC)cc1)C(=O)N1[C@@H]2CC[C@H]1CC(Nc1nc(NCCc3sc(N)nc3C)nc(N3CCn4ncnc4C3)n1)C2` (stereo partly specified), for which the EC50 (no co-treatment) was 12 µM, the EC50 (with Rapamycin) was 11.5 µM and the EC50 (with Torin1) was 29.3 µM.

On to `CCC(C)(C)C(=O)C(=O)N1CCCC[C@H]1C(=O)N[C@H](CCc1ccc(OC)cc1)C(=O)N1CC(Nc2nc(NCCc3sc(N)nc3C)nc(NCCn3cnc4ccccc43)n2)C1`, for which the puncta normalized to Torin1 is, setting by setting: (no co-treatment) 0.06 (inactive); (with Rapamycin) 0.85; (with Torin1) 1.47 (inactive).

Regarding `CS(C)=O`, the puncta normalized to Torin1 (no co-treatment) was 0 (inactive).

On to `CCC(C)(C)C(=O)C(=O)N1CCCC[C@H]1C(=O)N[C@H](CCc1ccc(OC)cc1)C(=O)N1[C@@H]2CC[C@H]1CC(Nc1nc(NCCc3sc(N)nc3C)nc(NCc3ccnc(CO)c3)n1)C2` (stereo partly specified), for which the puncta normalized to Torin1 was 0.14 (inactive) (no co-treatment), 1.02 (with Rapamycin) and 1.59 (with Torin1).

As for `CCC(C)(C)C(=O)C(=O)N1CCCC[C@H]1C(=O)N[C@H](CCc1ccc(OC)cc1)C(=O)N1[C@@H]2CC[C@H]1CC(Nc1nc(NCCc3sc(N)nc3C)nc(NCCn3cnc4ccccc43)n1)C2` (stereo partly specified), the puncta normalized to Torin1 was 0.49 (no co-treatment), 1.54 (with Rapamycin) and 2.17 (with Torin1).
